Measurements: ChEMBL document CHEMBL1201862, “PubChem BioAssay data set” (2004)
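A five-concentration, 48-hour dose response in 96-well plates underlies each endpoint, interpolated linearly between surrounding concentrations. At the GI50, growth is halved.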 Calls of active or inactive are those of the source. Cut-off read from the data, not from the text of the source: active = GI50 up to about 1.1 µM and inactive = higher.

Key:
Test in all cases: growth of human tumour cells (NCI), 48 h
OVCAR-4 = test system: OVCAR-4
NCI-H522 = test system: NCI-H522
LOX IMVI = test system: LOX IMVI
RXF 393 = test system: RXF 393
MCF7 = test system: MCF7
SK-MEL-28 = test system: SK-MEL-28
HT-29 = test system: HT-29
KM12 = test system: KM12
UACC-257 = test system: UACC-257
786-0 = test system: 786-0
HCT-15 = test system: HCT-15
SK-MEL-2 = test system: SK-MEL-2
Malme-3M = test system: Malme-3M
A498 = test system: A498
HOP-62 = test system: HOP-62
MOLT-4 = test system: MOLT-4
MDA-MB-231 = test system: MDA-MB-231
A549 = test system: A549
NCI-H226 = test system: NCI-H226
NCI-H460 = test system: NCI-H460

Row | SMILES | GI50 (OVCAR-4) | GI50 (NCI-H522) | GI50 (LOX IMVI) | GI50 (RXF 393) | GI50 (MCF7) | GI50 (SK-MEL-28) | GI50 (HT-29) | GI50 (KM12) | GI50 (UACC-257) | GI50 (786-0) | GI50 (HCT-15) | GI50 (SK-MEL-2) | GI50 (Malme-3M) | GI50 (A498) | GI50 (HOP-62) | GI50 (MOLT-4) | GI50 (MDA-MB-231) | GI50 (A549) | GI50 (NCI-H226) | GI50 (NCI-H460)
1 | O=C1c2ccccc2C(=O)c2c(NC3CCCCC3)ccc(Nc3ccc(S(=O)(=O)O)cc3)c21 | 33.9 µM (inactive) | 20.6 µM (inactive) | 32.7 µM (inactive) | 83.6 µM (inactive) | 21.3 µM (inactive) | > 100 µM (inactive) | 39.4 µM (inactive) | 30.9 µM (inactive) | 23.9 µM (inactive) | 45.7 µM (inactive) | 32.6 µM | 21.8 µM (inactive) | 23.4 µM (inactive) | > 100 µM (inactive) | > 100 µM (inactive) | 34.9 µM (inactive) | 22.5 µM (inactive) | 33.9 µM (inactive) | > 100 µM (inactive) | 62.5 µM (inactive)
2 | COC(=O)C1=C(C(=O)OC)SC(=C2S[C@@H]3[C@@H]4C[C@H]([C@@H]3S2)[C@H]2C(=O)OC(=O)[C@@H]42)S1 | > 100 µM (inactive) | > 100 µM (inactive) | > 100 µM (inactive) | > 100 µM (inactive) | > 100 µM (inactive) | > 100 µM (inactive) | > 100 µM (inactive) | > 100 µM (inactive) | > 100 µM (inactive) | > 100 µM (inactive) | > 100 µM | > 100 µM (inactive) | > 100 µM (inactive) | > 100 µM (inactive) | > 100 µM (inactive) | > 100 µM (inactive) | > 100 µM (inactive) | > 100 µM (inactive) | > 100 µM (inactive) | –
3 | CCCNC(=S)N/N=C/c1cccc(C)n1 | 39.4 µM (inactive) | 4.04 µM (inactive) | 16.6 µM (inactive) | 28.1 µM (inactive) | 41.2 µM (inactive) | – | 18 µM (inactive) | > 100 µM (inactive) | 33 µM (inactive) | 26 µM (inactive) | 18.5 µM | 1.09 µM (active) | 12.7 µM (inactive) | 33 µM (inactive) | 25.6 µM (inactive) | 16.8 µM (inactive) | 33.7 µM (inactive) | 26.4 µM (inactive) | 19.8 µM (inactive) | –
4 | CCN1CC2=C(OC(N)=C(C#N)C2c2ccc(Cl)cc2)/C(=C/c2ccc(Cl)cc2)C1 (stereo not drawn) | 32.4 µM (inactive) | 25.1 µM (inactive) | 26.8 µM (inactive) | 12.3 µM (inactive) | 30.5 µM (inactive) | 14.9 µM (inactive) | 38.7 µM (inactive) | 33.2 µM (inactive) | 28.1 µM (inactive) | 12.1 µM (inactive) | 45.8 µM | 27.6 µM (inactive) | 18.9 µM (inactive) | 16.5 µM (inactive) | 18.2 µM (inactive) | 3.19 µM (inactive) | 16.1 µM (inactive) | 14.2 µM (inactive) | 31 µM (inactive) | 14 µM (inactive)
5 | N#CCCN(CCCCN(CCC#N)C(=O)Nc1ccccc1)C(=O)Nc1ccccc1 | > 100 µM (inactive) | > 100 µM (inactive) | > 100 µM (inactive) | 24.4 µM (inactive) | > 100 µM (inactive) | > 100 µM (inactive) | > 100 µM (inactive) | > 100 µM (inactive) | – | > 100 µM (inactive) | > 100 µM | > 100 µM (inactive) | > 100 µM (inactive) | > 100 µM (inactive) | > 100 µM (inactive) | > 100 µM (inactive) | > 100 µM (inactive) | > 100 µM (inactive) | > 100 µM (inactive) | > 100 µM (inactive)
6 | C=C(CCOC)CCC1CCCCC/C1=N\N(C)C (stereo not drawn) | > 100 µM (inactive) | > 100 µM (inactive) | > 100 µM (inactive) | > 100 µM (inactive) | > 100 µM (inactive) | > 100 µM (inactive) | > 100 µM (inactive) | > 100 µM (inactive) | – | > 100 µM (inactive) | > 100 µM | > 100 µM (inactive) | > 100 µM (inactive) | > 100 µM (inactive) | > 100 µM (inactive) | > 100 µM (inactive) | > 100 µM (inactive) | > 100 µM (inactive) | > 100 µM (inactive) | > 100 µM (inactive)
7 | O=C1/C(=C/c2ccc([N+](=O)[O-])cc2)Sc2scc(-c3cccc([N+](=O)[O-])c3)[n+]21 | 9.53 µM (inactive) | 0.973 µM (active) | 2.41 µM (inactive) | 2.35 µM (inactive) | 4.09 µM (inactive) | – | 2.31 µM (inactive) | 10.8 µM (inactive) | 5.32 µM (inactive) | 1.79 µM (inactive) | 2.26 µM | 13.9 µM (inactive) | 1.33 µM (inactive) | 3.13 µM (inactive) | 15.5 µM (inactive) | 1.99 µM (inactive) | 4.91 µM (inactive) | 22.2 µM (inactive) | 11.5 µM (inactive) | 8.99 µM (inactive)
8 | CC(C)(C)c1cc(/C=C2/NC(=O)NC2=O)cc(C(C)(C)C)c1O | 11.4 µM (inactive) | 12 µM (inactive) | 15.8 µM (inactive) | 6.25 µM (inactive) | 13 µM (inactive) | 17.5 µM (inactive) | 11.7 µM (inactive) | 13.2 µM (inactive) | 16 µM (inactive) | 15.6 µM (inactive) | 13.2 µM | 13.8 µM (inactive) | 19.5 µM (inactive) | 14 µM (inactive) | 17.1 µM (inactive) | 17.1 µM (inactive) | 12.6 µM (inactive) | – | 14.8 µM (inactive) | 14.5 µM (inactive)
9 | COc1ccc(/N=N/C(=O)NC(CC(C)C)C(N)=O)cc1 (stereo not drawn) | > 31.6 µM (inactive) | > 100 µM (inactive) | 9.48 µM (inactive) | > 31.6 µM (inactive) | 24.3 µM (inactive) | > 69 µM (inactive) | > 100 µM (inactive) | 5.27 µM (inactive) | 23.6 µM (inactive) | > 31.6 µM (inactive) | > 24.4 µM | > 100 µM (inactive) | > 100 µM (inactive) | > 31.6 µM (inactive) | > 100 µM (inactive) | 7.74 µM (inactive) | > 31.6 µM (inactive) | 9.14 µM (inactive) | > 94.4 µM (inactive) | 11.6 µM (inactive)
10 | COc1ccc(-n2c(C)nc3ccc(NC4OC(COC(C)=O)C(OC(C)=O)C(OC(C)=O)C4OC(C)=O)cc3c2=O)cc1 (stereo not drawn) | > 100 µM (inactive) | 21.8 µM (inactive) | 28.5 µM (inactive) | 27.8 µM (inactive) | 45.9 µM (inactive) | 34 µM (inactive) | 53.3 µM (inactive) | > 100 µM (inactive) | > 100 µM (inactive) | 24.8 µM (inactive) | 76 µM | > 100 µM (inactive) | 69.3 µM (inactive) | > 100 µM (inactive) | > 100 µM (inactive) | 27.4 µM (inactive) | > 100 µM (inactive) | – | 32.7 µM (inactive) | > 100 µM (inactive)
11 | Cc1ccc(OCC2OC(n3cnc4c(Br)nc(Br)nc43)CC2Oc2ccc(C)cc2)cc1 (stereo not drawn) | 3.12 µM (inactive) | 1.86 µM (inactive) | 1.93 µM (inactive) | 4.94 µM (inactive) | 4.32 µM (inactive) | 4.51 µM (inactive) | 2.9 µM (inactive) | 3.08 µM (inactive) | 7.06 µM (inactive) | 3.02 µM (inactive) | 2.34 µM | 2.75 µM (inactive) | 3.58 µM (inactive) | 10.5 µM (inactive) | 3.61 µM (inactive) | 2.1 µM (inactive) | 2.12 µM (inactive) | 12.6 µM (inactive) | 14.6 µM (inactive) | –
12 | COc1cc(CNc2ccc3nc4n(c(=O)c3c2)CCCCC4)cc(OC)c1OC | 22.7 µM (inactive) | 39.9 µM (inactive) | 55.2 µM (inactive) | 58.6 µM (inactive) | 32.2 µM (inactive) | 43.4 µM (inactive) | 81.7 µM (inactive) | 58.6 µM (inactive) | 24.3 µM (inactive) | > 100 µM (inactive) | 45.6 µM | 40.4 µM (inactive) | 30.7 µM (inactive) | 50.6 µM (inactive) | 95.1 µM (inactive) | 32.7 µM (inactive) | 27.3 µM (inactive) | 51.1 µM (inactive) | 78.9 µM (inactive) | 39.9 µM (inactive)
13 | Cc1ccc2ccc(=O)oc2c1 | > 100 µM (inactive) | > 100 µM (inactive) | > 100 µM (inactive) | > 100 µM (inactive) | > 100 µM (inactive) | > 100 µM (inactive) | > 100 µM (inactive) | > 100 µM (inactive) | > 100 µM (inactive) | > 100 µM (inactive) | – | > 100 µM (inactive) | > 100 µM (inactive) | > 100 µM (inactive) | > 100 µM (inactive) | > 100 µM (inactive) | > 100 µM (inactive) | > 100 µM (inactive) | > 100 µM (inactive) | > 100 µM (inactive)
14 | Oc1cc(O)c2c(c1)O[C@H](c1cc(O)c(O)c(O)c1)[C@H](O)C2 [EPIGALLOCATECHIN] | 14.7 µM (inactive) | 17.7 µM (inactive) | 27.9 µM (inactive) | 15.2 µM (inactive) | 20.8 µM (inactive) | 36.6 µM (inactive) | – | – | > 100 µM (inactive) | 18.2 µM (inactive) | 34.8 µM | 7.96 µM (inactive) | > 100 µM (inactive) | > 100 µM (inactive) | 19.7 µM (inactive) | 14.6 µM (inactive) | 18.7 µM (inactive) | 27.5 µM (inactive) | 26.4 µM (inactive) | 18.3 µM (inactive)
